Laboratory results from ChEMBL document CHEMBL2380312, “Discovery of the first histone deacetylase 6/8 dual inhibitors” (J Med Chem, 2013).
Calls of active or inactive are those of the source. The rule behind the calls is not given here.

Tests used:
Histone deacetylase 8 = target: T1, Histone deacetylase 8 (Homo sapiens, UniProt Q9BY41); assay: Inhibition of HDAC8 (unknown origin) after 60 mins by fluorescence assay
T1 sequence (Q9BY41 whole entry): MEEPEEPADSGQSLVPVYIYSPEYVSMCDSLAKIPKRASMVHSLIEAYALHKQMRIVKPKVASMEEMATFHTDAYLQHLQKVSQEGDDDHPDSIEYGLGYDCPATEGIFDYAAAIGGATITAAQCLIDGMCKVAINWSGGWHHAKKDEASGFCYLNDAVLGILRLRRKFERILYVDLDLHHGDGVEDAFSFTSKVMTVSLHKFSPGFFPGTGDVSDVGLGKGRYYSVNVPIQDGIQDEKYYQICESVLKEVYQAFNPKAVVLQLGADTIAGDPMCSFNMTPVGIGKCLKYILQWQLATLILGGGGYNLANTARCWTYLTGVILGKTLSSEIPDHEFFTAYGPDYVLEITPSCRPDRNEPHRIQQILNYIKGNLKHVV

[1] = target: T2, Protein deacetylase HDAC6 (Homo sapiens, UniProt Q9UBN7); assay: Inhibition of HDAC6 (unknown origin) after 60 mins by fluorescence assay
T2 sequence (Q9UBN7 whole entry): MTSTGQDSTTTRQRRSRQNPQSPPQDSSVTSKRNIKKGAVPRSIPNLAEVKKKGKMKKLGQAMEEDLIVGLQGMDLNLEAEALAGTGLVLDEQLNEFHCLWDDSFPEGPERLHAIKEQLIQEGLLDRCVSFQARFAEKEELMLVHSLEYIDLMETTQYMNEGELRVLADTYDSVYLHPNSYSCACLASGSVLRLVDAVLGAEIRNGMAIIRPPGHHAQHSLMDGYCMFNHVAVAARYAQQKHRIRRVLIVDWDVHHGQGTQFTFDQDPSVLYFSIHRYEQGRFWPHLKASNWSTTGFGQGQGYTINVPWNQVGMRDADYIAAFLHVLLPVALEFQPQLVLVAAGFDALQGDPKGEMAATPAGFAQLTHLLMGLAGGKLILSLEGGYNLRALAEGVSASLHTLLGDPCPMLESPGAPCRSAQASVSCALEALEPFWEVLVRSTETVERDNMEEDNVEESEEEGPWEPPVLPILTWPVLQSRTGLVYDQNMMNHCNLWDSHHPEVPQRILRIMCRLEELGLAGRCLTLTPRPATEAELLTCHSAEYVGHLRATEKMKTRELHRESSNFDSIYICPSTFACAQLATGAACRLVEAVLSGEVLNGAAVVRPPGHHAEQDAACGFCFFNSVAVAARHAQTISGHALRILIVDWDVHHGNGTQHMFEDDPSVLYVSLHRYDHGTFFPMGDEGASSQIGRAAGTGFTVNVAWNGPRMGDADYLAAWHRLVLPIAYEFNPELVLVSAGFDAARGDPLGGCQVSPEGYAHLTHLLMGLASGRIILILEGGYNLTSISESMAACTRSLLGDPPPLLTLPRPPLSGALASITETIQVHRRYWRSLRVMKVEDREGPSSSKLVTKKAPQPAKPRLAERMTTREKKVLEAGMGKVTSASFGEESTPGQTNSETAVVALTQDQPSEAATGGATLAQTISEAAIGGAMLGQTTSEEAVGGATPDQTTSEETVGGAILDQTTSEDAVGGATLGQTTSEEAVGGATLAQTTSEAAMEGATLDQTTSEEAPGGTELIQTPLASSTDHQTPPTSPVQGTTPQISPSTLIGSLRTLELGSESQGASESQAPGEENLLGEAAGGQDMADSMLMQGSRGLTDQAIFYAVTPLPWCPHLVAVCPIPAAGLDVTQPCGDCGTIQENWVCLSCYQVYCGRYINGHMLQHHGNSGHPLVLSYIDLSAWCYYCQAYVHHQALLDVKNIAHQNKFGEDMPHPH

Histone deacetylase 4 = Histone deacetylase 4 (Homo sapiens, UniProt P56524); assay: Inhibition of HDAC4 (unknown origin) after 60 mins by fluorescence assay
Histone deacetylase 2 [2] = target: T3, Histone deacetylase 2 (Homo sapiens, UniProt Q92769); assay: Inhibition of HDAC2 (unknown origin) after 60 mins by fluorescence assay
Histone deacetylase 9 = Histone deacetylase 9 (Homo sapiens, UniProt Q9UKV0); assay: Inhibition of HDAC9 (unknown origin) after 60 mins by fluorescence assay
Histone deacetylase 5 = Histone deacetylase 5 (Homo sapiens, UniProt Q9UQL6); assay: Inhibition of HDAC5 (unknown origin) after 60 mins by fluorescence assay
Histone deacetylase 3 = Histone deacetylase 3 (Homo sapiens, UniProt O15379); assay: Inhibition of HDAC3 (unknown origin) after 60 mins by fluorescence assay
Histone deacetylase 1 = Histone deacetylase 1 (Homo sapiens, UniProt Q13547); assay: Inhibition of HDAC1 (unknown origin) after 60 mins by fluorescence assay
Histone deacetylase 2 [3] = target: T3, Histone deacetylase 2; conditions: HeLa, at 10 µM
Description: Inhibition of HDAC2 in human HeLa cells assessed as increase in histone H3 acetylation at 10 uM after 48 hrs by Western blotting analysis

Homo sapiens [4] = species: Homo sapiens; assay: Selectivity ratio of IC50 for HDAC4 (unknown origin) to IC50 for HDAC8 (unknown origin)
Homo sapiens [5] = species: Homo sapiens; assay: Selectivity ratio of IC50 for HDAC4 (unknown origin) to IC50 for HDAC6 (unknown origin)
Homo sapiens [6] = species: Homo sapiens; assay: Selectivity ratio of IC50 for HDAC2 (unknown origin) to IC50 for HDAC8 (unknown origin)
Homo sapiens [7] = species: Homo sapiens; assay: Selectivity ratio of IC50 for HDAC2 (unknown origin) to IC50 for HDAC6 (unknown origin)
Histone deacetylase 7 = target: T4, Histone deacetylase 7 (Homo sapiens, UniProt Q8WUI4); assay: Inhibition of HDAC7 (unknown origin) after 60 mins by fluorescence assay
T4 sequence (Q8WUI4 whole entry): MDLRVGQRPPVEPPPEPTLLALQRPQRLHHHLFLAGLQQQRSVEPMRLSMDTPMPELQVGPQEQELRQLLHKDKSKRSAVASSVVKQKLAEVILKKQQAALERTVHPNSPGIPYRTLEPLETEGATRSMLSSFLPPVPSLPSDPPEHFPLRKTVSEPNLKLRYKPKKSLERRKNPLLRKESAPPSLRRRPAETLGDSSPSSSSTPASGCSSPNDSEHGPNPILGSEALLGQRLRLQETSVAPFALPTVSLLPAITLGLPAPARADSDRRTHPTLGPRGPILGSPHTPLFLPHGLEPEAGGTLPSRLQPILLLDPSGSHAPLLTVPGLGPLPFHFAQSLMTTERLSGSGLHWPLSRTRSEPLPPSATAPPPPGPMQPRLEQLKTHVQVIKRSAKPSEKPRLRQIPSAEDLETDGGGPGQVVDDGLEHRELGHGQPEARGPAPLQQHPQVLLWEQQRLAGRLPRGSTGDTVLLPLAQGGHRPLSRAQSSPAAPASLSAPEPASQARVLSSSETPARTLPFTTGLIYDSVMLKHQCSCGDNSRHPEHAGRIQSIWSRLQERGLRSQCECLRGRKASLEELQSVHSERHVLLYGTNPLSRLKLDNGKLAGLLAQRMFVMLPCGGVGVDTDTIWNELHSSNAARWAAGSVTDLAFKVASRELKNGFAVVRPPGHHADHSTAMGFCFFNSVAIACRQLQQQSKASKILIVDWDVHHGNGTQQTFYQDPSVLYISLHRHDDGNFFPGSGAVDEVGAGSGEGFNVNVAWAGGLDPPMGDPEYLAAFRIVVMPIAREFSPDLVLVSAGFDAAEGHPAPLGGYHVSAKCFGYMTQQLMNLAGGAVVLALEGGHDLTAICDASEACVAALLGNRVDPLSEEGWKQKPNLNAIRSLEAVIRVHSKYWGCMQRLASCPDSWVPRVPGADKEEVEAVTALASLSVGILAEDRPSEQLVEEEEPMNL

T3 sequence (Q92769 whole entry): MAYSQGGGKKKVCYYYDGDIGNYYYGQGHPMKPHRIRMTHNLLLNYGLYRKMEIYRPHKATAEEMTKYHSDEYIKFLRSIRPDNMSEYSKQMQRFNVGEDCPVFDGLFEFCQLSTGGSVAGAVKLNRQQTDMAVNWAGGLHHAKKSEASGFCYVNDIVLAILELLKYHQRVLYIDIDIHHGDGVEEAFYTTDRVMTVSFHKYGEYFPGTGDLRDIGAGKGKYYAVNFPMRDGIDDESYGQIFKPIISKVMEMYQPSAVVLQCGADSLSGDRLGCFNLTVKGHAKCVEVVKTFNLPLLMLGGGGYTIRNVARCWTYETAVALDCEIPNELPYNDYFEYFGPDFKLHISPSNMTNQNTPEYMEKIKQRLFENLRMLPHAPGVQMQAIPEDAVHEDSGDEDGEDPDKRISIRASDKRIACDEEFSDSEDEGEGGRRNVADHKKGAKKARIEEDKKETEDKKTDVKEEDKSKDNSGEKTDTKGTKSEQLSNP
Chain of Histone deacetylase 4 (P56524 whole entry): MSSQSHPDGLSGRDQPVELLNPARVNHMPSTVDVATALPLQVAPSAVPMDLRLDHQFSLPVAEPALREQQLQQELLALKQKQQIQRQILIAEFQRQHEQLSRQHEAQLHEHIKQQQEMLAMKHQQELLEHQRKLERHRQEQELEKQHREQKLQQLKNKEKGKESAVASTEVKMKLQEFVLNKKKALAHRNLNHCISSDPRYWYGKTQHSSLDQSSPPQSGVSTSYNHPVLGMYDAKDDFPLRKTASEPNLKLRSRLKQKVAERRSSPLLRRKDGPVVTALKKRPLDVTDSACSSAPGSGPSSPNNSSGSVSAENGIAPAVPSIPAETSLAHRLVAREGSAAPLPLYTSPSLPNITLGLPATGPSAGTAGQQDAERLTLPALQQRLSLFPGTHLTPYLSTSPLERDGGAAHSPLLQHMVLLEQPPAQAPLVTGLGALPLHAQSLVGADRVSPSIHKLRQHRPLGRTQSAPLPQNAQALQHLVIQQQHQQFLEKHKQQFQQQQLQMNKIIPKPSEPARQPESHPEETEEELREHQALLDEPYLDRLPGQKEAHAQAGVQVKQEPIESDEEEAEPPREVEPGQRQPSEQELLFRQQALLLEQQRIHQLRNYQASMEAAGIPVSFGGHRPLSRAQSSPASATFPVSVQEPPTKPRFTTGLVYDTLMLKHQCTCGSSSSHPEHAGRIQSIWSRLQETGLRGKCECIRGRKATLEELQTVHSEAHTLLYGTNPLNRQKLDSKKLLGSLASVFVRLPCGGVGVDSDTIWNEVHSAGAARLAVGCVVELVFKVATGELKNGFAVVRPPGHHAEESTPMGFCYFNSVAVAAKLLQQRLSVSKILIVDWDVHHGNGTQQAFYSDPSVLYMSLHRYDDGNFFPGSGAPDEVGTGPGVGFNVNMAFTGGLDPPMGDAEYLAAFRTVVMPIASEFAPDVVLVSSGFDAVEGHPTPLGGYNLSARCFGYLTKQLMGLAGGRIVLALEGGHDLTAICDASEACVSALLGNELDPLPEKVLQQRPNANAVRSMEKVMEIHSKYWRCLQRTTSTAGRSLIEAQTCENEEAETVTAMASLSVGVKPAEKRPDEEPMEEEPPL
Chain of Histone deacetylase 9 (Q9UKV0 whole entry): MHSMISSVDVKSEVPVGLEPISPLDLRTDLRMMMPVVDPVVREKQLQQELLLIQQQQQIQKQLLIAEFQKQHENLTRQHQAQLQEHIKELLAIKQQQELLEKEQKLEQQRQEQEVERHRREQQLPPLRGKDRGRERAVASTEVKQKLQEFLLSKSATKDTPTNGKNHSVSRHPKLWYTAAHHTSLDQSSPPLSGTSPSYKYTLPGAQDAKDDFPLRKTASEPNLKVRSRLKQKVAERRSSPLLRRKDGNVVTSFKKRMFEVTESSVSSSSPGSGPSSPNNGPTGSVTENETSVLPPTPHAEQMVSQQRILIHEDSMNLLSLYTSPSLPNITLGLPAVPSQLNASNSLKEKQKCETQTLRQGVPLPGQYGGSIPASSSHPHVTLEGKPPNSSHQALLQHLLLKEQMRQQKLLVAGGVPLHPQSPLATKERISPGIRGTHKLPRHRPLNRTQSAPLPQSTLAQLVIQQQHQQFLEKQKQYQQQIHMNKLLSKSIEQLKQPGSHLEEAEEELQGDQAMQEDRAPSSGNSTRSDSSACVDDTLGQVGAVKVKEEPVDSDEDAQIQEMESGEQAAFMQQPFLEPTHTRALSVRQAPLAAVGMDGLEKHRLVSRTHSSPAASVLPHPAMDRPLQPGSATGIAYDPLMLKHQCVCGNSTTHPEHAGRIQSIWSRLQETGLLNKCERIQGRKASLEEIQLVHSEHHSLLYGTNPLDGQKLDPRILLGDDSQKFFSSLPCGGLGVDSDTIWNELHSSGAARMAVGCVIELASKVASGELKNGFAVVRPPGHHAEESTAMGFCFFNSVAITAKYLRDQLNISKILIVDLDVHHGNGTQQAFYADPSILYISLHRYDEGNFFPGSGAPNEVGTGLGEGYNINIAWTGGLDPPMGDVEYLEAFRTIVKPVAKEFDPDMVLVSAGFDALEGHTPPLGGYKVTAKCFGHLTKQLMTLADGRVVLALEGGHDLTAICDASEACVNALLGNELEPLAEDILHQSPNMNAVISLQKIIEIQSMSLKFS
Chain of Histone deacetylase 1 (Q13547 whole entry): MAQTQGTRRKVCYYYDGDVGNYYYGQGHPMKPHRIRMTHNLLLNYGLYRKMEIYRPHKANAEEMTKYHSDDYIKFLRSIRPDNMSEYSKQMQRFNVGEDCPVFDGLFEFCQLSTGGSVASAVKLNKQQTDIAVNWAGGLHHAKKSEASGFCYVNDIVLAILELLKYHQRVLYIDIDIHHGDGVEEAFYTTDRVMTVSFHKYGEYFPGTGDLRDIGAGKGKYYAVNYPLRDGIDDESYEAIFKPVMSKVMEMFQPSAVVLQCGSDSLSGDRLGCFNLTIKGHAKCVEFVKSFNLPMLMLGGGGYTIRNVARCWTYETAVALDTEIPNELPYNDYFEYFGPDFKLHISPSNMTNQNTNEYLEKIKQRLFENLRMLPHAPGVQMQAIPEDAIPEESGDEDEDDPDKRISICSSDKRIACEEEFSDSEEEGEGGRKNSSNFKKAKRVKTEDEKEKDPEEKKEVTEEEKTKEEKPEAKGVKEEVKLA
Chain of Histone deacetylase 3 (O15379 whole entry): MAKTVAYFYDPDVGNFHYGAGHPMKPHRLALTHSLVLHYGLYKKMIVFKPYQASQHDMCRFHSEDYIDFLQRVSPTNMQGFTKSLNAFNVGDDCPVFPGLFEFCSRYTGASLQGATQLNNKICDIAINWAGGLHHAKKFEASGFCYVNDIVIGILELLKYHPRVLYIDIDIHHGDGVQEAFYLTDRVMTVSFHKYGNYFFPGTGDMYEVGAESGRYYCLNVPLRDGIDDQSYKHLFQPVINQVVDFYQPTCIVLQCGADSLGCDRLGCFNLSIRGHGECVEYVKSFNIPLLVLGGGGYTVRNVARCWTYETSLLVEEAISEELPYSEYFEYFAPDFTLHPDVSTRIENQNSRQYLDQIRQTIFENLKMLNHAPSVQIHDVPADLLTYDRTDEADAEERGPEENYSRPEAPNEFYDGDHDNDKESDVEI
Chain of Histone deacetylase 5 (Q9UQL6 whole entry): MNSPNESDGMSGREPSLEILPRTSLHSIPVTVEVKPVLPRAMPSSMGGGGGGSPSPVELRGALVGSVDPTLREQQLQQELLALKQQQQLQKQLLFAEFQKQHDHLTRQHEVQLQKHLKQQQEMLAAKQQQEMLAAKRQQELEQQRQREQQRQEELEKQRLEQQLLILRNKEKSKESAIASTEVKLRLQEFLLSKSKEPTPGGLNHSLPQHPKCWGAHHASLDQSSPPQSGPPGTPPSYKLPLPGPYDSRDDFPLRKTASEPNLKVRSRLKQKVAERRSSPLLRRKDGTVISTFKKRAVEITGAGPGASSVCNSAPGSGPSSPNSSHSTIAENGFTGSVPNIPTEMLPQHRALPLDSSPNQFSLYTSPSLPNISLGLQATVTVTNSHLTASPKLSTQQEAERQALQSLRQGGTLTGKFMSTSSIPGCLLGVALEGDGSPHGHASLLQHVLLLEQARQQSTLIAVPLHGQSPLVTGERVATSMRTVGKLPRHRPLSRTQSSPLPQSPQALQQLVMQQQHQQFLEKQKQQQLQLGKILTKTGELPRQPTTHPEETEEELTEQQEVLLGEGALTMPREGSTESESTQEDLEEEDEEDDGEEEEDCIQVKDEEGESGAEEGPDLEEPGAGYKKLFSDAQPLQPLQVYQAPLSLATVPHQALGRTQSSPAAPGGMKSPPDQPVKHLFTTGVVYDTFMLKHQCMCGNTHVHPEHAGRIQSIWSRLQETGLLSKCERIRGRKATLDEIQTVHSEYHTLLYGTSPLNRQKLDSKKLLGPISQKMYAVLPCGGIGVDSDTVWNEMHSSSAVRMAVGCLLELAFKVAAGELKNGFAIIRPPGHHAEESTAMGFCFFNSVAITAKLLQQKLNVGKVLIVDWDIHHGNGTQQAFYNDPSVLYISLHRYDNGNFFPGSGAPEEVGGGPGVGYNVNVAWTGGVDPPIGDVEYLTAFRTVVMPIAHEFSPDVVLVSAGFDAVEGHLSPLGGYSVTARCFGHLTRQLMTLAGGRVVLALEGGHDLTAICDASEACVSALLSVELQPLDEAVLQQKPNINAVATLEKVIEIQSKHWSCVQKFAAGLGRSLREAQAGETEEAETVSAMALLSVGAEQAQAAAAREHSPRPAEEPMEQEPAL

SMILES | IC50 (Histone deacetylase 8) | IC50 [1] | IC50 (Histone deacetylase 4) | IC50 (Histone deacetylase 2 [2]) | IC50 (Histone deacetylase 9) | IC50 (Histone deacetylase 5) | IC50 (Histone deacetylase 3) | IC50 (Histone deacetylase 1) | inhibition (Histone deacetylase 2 [3]) | Ratio IC50 (Homo sapiens [4]) | Ratio IC50 (Homo sapiens [5]) | Ratio IC50 (Homo sapiens [6]) | Ratio IC50 (Homo sapiens [7]) | IC50 (Histone deacetylase 7)
O=C(NO)c1cccc(C(=O)NCCc2ccccc2)c1 | – | – | – | 9 µM | > 33 µM | > 33 µM | 23 µM | 12 µM | Active | – | – | – | – | –
O=C(NO)c1cccc(CNc2ccccc2)c1 | 1.7 µM | 1.3 µM | > 33 µM | > 33 µM | – | – | – | – | – | – | – | – | – | –
O=C(NO)c1cccc(C(=O)NCCc2cccnc2)c1 | 0.42 µM | 0.059 µM | > 33 µM | 20 µM | – | – | – | – | – | – | – | – | – | –

Other lines, results leading:

IC50 (Histone deacetylase 8) | IC50 [1] | IC50 (Histone deacetylase 4) | IC50 (Histone deacetylase 2 [2]) | IC50 (Histone deacetylase 9) | IC50 (Histone deacetylase 5) | IC50 (Histone deacetylase 3) | IC50 (Histone deacetylase 1) | inhibition (Histone deacetylase 2 [3]) | Ratio IC50 (Homo sapiens [4]) | Ratio IC50 (Homo sapiens [5]) | Ratio IC50 (Homo sapiens [6]) | Ratio IC50 (Homo sapiens [7]) | IC50 (Histone deacetylase 7) | SMILES
14 µM | 2.5 µM | > 33 µM | > 33 µM | – | – | – | – | – | – | – | – | – | – | CNC(=O)c1cccc(C(=O)NO)c1
0.21 µM | 0.034 µM | > 33 µM | 11 µM | – | – | – | – | – | > 50 | > 50 | > 50 | > 50 | – | O=C(NO)c1cccc(C(=O)NCc2ccccc2)c1
3.3 µM | 0.65 µM | > 33 µM | > 33 µM | – | – | – | – | – | – | – | – | – | – | Cc1cccc(C(=O)NO)c1
– | – | > 33 µM | – | – | – | – | – | – | – | – | – | – | – | O=C(NO)c1cccc(C(=O)Nc2ccccc2)c1
0.037 µM | 0.021 µM | 14 µM | 4.8 µM | 12 µM | 26 µM | 18 µM | 6.1 µM | Active | > 130 | > 130 | > 130 | > 130 | 8.4 µM | O=C(/C=C/c1cccc(C(=O)NO)c1)Nc1ccccc1
